Results taken from patent publication US7354936B2, “2-phenylpyran-4-one derivatives” (Almirall AG, priority 2000, dated 2008).

Experiments:
COX-1 = target: T1, COX-1 (Homo sapiens, UniProt P23219); assay: COX-1 activity in human whole blood (TXB2, calcium ionophore A23187); assay type: cell-based; conditions: for IC50: 1 h at 37° C., TXB2 by ELISA
T1 construct: Fresh blood from healthy volunteers; from tissue; host or cells: human whole blood (heparinized) from healthy volunteers

COX-2 = target: T2, COX-2 (Homo sapiens, UniProt P35354); assay: COX-2 activity in human whole blood (PGE2, LPS-induced); assay type: cell-based; conditions: for IC50: LPS 24 h at 37° C., PGE2 by ELISA; for Ratio COX-1/COX-2: ratio of COX-1/COX-2 IC50 values
T2 construct: incubated in the presence of LPS (10:g/ml) for 24 h at 37° C. in order to induce the COX-2 expression; from tissue; host or cells: human whole blood (heparinized) from healthy volunteers, LPS-stimulated for 24 h
T2 sequence (P35354 18-604): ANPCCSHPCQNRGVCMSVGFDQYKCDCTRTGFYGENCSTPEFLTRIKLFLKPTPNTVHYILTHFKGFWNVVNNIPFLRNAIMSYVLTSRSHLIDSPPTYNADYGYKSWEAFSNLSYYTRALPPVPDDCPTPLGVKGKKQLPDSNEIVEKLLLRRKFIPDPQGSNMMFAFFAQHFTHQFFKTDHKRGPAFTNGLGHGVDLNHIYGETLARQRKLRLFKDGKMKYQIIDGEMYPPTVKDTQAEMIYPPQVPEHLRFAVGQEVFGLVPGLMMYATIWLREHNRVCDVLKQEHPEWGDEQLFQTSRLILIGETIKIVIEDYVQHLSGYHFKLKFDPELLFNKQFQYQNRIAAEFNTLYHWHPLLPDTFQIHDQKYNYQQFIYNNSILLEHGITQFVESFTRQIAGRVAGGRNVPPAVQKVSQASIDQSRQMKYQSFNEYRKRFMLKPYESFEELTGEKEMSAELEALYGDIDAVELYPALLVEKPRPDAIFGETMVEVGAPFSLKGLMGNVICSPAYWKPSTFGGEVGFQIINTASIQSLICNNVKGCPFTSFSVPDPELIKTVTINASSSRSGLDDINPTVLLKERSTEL

T1 sequence (P23219 24-599): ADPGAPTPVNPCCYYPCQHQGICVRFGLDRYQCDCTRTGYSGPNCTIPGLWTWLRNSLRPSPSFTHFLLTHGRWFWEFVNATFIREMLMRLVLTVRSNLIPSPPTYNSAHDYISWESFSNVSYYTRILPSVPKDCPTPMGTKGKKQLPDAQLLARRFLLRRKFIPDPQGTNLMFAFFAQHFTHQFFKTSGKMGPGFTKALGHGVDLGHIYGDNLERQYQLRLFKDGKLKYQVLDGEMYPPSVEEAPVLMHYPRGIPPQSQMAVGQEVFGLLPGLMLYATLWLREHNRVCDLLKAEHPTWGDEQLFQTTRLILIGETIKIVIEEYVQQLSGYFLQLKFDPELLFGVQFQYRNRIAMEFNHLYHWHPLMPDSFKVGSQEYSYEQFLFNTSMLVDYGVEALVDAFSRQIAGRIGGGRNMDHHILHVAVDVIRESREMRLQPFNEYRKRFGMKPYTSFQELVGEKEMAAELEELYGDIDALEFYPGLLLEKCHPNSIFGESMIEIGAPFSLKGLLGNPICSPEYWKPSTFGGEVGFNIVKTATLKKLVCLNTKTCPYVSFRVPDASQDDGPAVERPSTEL

IC50 (COX-1) | melting point | IC50 (COX-2) | Ratio COX-1/COX-2 (COX-2) | inhibition at 100 µM (COX-1; read-out: COX-1 inhibition at 100 μM, at 100 μM) | SMILES
50300 nM | 180 °C | 140 nM | 359 |  | CC(=O)OCc1cc(=O)c(Oc2ccc(F)cc2)c(-c2ccc(S(C)(=O)=O)cc2)o1 [Example 30, Acetic acid [5-(4-fluorophenoxy)-6-(4-methanesulfonylphenyl)-4-oxo-4H-pyran-2-yl]methyl ester]
 | 115 °C | 1100 nM | >90 | 17% | CC(=O)OCc1cc(=O)c(Oc2ccc(Cl)cc2)c(-c2ccc(S(C)(=O)=O)cc2)o1 [Example 31, Acetic acid [5-(4-chlorophenoxy)-6-(4-methanesulfonylphenyl)-4-oxo-4H-pyran-2-yl]methyl ester]
450000 nM | 245 °C | 420 nM | 1070 |  | CS(=O)(=O)c1ccc(-c2oc(C(=O)O)cc(=O)c2Oc2ccc(F)cc2F)cc1 [Example 32, 5-(2,4-Difluorophenoxy)-6-(4-methanesulfonylphenyl)-4-oxo-4H-pyran-2-carboxylic acid]
28500 nM | 160 °C | 97 nM | 294 |  | Cc1ccc(Oc2c(-c3ccc(S(C)(=O)=O)cc3)oc(C(F)F)cc2=O)cc1 [Example 36, 6-(1,1-Difluoromethyl)-2-(4-methanesulfonylphenyl)-3-(4-methylphenoxy)pyran-4-one]
